Experimental data from patent publication US20240166626A1, “Compounds and Methods for Preventing, Treating, or Ameliorating Airway Disease” (THOMAS JEFFERSON UNIVERSITY, priority 2021, published 2024).

Biological target: FLAG-β2AR (Homo sapiens, UniProt P07550)
Test: Receptor internalization, cell surface ELISA, HEK 293 FLAG-β2AR
Format: cell-based
Settings: 10 μM DFPQ, ISO up to 60 min, FIG. 4A
Method: FIGS. 4A-4F: DFPQ inhibits internalization of the β2AR and protects from agonist induced desensitization in cell and tissue models. FIG. 4A: Effect of DFPQ on agonist-promoted internalization of the β2AR. […] Cells were fixed and receptor surface expression was measured by ELISA. […] Cells were lysed and cAMP production was measured by ELISA. […] FIG. 4C: […] Airway contractility was measured by luminal area of bronchioles by microscopy at various times. FIG. 4D: […] HASM cells were scratched and incubated overnight in PDGF containing serum free media. Cells were imaged to evaluate migration into the scratched area. […] Cells were read every three minutes for 18 minutes on a PolarStar Optima plate reader (BMG) to establish peak signal. […] Luminescence was determined at room temperature (23-25° C.) on a PolarStar Optima plate reader (BMG). […] Relative assay bias was calculated from the ratio of normalized cAMP and arrestin recruitment responses. […] BRET was measured using a Tecan Infinite F500 microplate reader. […] Bound [35 S]GTPγS was collected by rapid filtration on GF/B filters, washed 4 times with 4 ml of cold GTPγS wash buffer and analyzed by liquid scintillation counting. […] Immunoprecipitated proteins were separated by SDS-PAGE and analyzed by western blot using a β2AR C-terminal tail or phospho-specific antibody. […] Band intensity was measured by densitometry using ImageJ. […]

Chain of FLAG-β2AR (P07550 whole entry): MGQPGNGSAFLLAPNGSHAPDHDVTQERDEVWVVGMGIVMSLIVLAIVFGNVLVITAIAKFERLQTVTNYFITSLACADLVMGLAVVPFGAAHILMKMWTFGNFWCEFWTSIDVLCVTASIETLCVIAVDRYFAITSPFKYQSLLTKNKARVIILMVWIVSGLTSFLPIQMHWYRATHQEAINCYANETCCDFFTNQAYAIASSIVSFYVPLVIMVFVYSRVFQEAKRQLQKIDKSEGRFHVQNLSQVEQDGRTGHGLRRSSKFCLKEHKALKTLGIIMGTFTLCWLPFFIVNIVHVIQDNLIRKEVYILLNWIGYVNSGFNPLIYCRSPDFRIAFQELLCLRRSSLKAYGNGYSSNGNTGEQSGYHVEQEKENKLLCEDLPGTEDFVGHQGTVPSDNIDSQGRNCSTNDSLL

agonist-induced internalization of the receptor: fully inhibited
SMILES: Fc1ccc(Nc2nc(NC3CCCCC3)c3ccccc3n2)cc1F [DFPQ, N^4-cyclohexyl-N^2-(3,4-difluorophenyl)quinazoline-2,4-diamine]
